Compound | melting point
O=C(O)c1cccnc1N1CCN(Cc2cccc(Cl)c2)CC1 | 188 to 190 °C
CCN(CC)S(=O)(=O)c1ccc(O)c(C(=O)O)c1 | 129 to 131 °C
COc1ccnc(N2CCC(C(=O)O)CC2)n1 | 131 to 133 °C
CC(=O)c1ccc(NC(=O)NC2CC2)cc1 | 161 to 163 °C
CN(c1ccccc1)c1ccccc1C(=O)O | 105 to 107 °C
O=C(O)Cc1c[nH]c2ccc([N+](=O)[O-])cc12 | 189 to 191 °C
Cc1cccc(-n2c(C)cc(C(=O)O)c2C)c1 | 194 to 196 °C
COC(=O)C(=O)CC(=O)c1ccccc1 | 58 to 60 °C
CN(C)C(C)(C(=O)O)c1ccc(Cl)cc1 (centres undefined) | 239 to 241 °C
Fc1ccccc1-c1nnc(S)[nH]1 | 154 to 156 °C
COc1ccc(C(=O)c2ccccc2Cl)c(OC)c1 | 61 to 63 °C
CC(C)(N)CN1CCN(c2ccccc2)CC1 | 84 to 86 °C
Fc1cccc2c(CBr)csc12 | 74 to 76 °C
NC1CCN(c2ccccc2)C1=O (centres undefined) | 66 to 68 °C
Cc1nn(Cc2ccccc2)c(C)c1CN | 39 to 41 °C
CCN(CC)S(=O)(=O)c1ccc(OC(C)C)c(NC(=O)CCl)c1 | 223 to 226 °C
FC(F)Oc1cccc(-c2ccc(Cl)nn2)c1 | 86 to 88 °C
CNC(=S)NNC(=O)c1ccccc1 | 181 to 183 °C
CCc1ccc(OCc2nnc(S)n2C(C)c2ccccc2)cc1 (centres undefined) | 143 to 145 °C
Cc1ccc(C#N)cc1S(=O)(=O)Cl | 82 to 84 °C
CCOc1cc(C#N)ccc1O | 75 to 77 °C
CC(Cl)C(=O)Nc1cccc(CSc2ccccn2)c1 (centres undefined) | 97 to 99 °C
C=CCOc1ccc(O)cc1 | 36 to 38 °C
COc1cccc(Nc2nc3ccccc3s2)c1 | 117 to 119 °C

Compound | melting point
Cc1cc(C(=O)CCl)c(C)n1CCC(C)C | 55 to 57 °C
NC(CC(=O)NC1CCCCC1)=NO | 167 to 169 °C
O=C(O)CCCCNC(=O)OCc1ccccc1 | 104 to 106 °C
COc1ccc2[nH]cc(C3CCNCC3)c2c1 | 169 to 171 °C
Cc1nc(-c2ccccc2)c(N)s1 | 169 to 171 °C
CC(CC(=O)O)NCCO (centres undefined) | 180 to 182 °C
CN1CCN(S(=O)(=O)c2ccc(Cl)nc2)CC1 | 129 to 131 °C
O=C1CC(NC(=O)C(F)(F)F)c2ccsc21 (centres undefined) | 133 to 135 °C
O=C(O)C=Cc1cc(Br)ccc1OCc1ccccc1Cl | 192 to 194 °C
CN(C)c1ccc(CCC(=O)O)cc1 | 105 to 107 °C
O=C(O)C1=COCCO1 | 164 to 166 °C
NC(CN1CCCC1)=NO | 142 to 144 °C
Nc1cccc(CS(=O)C2CCCCC2)c1 (centres undefined) | 88 to 90 °C
Cc1ccc(S(=O)(=O)N2CCOCC2)cc1C(=O)O | 148 to 152 °C
CC(=O)c1ccc(-n2ccnc2C)cc1 | 132 to 134 °C
CC(C)c1ccc(C(N)CC(=O)O)cc1 (centres undefined) | 234 to 236 °C
Nc1ccc(S(=O)(=O)Nc2ccccc2Cl)c(Cl)c1 | 239 to 241 °C
N=C1NS(=O)(=O)Cc2ccccc21 | 264 to 266 °C
Cc1nc2c(cnn2-c2ccc(F)cc2)c(=O)[nH]1 | 329 to 331 °C
COc1ccc(-c2csc(N)n2)cc1C | 179 to 181 °C
CCOC(=O)C(=O)C=Cc1ccsc1 | 53 to 55 °C
CCOc1ccc(NS(=O)(=O)c2ccc(N)cc2)cc1 | 145 to 147 °C
CCOc1ccccc1-c1nnc(S)n1N | 153 to 155 °C
Fc1cc(Br)c(F)cc1S | 47 to 49 °C

Compound | melting point
Clc1ccc2nncn2n1 | 213 to 215 °C
CC(C)C1=NN(C)C(=O)C1 | 110 to 112 °C
CCc1cc(OCC(=O)O)ccc1Cl | 143 to 145 °C
Nc1oc2ccc(F)cc2c(=O)c1C=O | 251 to 253 °C
CC(=NO)c1ccc(OCc2ccccc2C)cc1 | 153 to 155 °C
COc1ccc(NS(=O)(=O)c2cc(N)ccc2N2CCCCC2)cc1 | 145 to 154 °C
Nc1ccc(OCc2cccc(C(F)(F)F)c2)cc1 | 67 to 69 °C
COCC1(O)CCNCC1 | 54 to 56 °C
CC(C)Oc1ccc(NS(=O)(=O)CC(=O)O)cc1 | 116 to 118 °C
N#Cc1cc(Cl)nc2ccc(Cl)cc12 | 168 to 170 °C
Cc1ccc(S(=O)(=O)OCC2CCCO2)cc1 (centres undefined) | 43 to 45 °C
Cc1nnc(S)n1C1CCCCC1 | 164 to 166 °C
COc1ccc(C(=O)O)cc1S(=O)(=O)NCc1ccncc1 | 225 to 227 °C
COc1cccc(CO)c1OC(F)F | 77 to 79 °C
O=S(=O)(c1c[nH]c2ncccc12)N1CCNCC1 | 207 to 209 °C
O=C1NC(=O)C(c2ccc(F)c(Br)c2)N1 (centres undefined) | 173 to 175 °C
OCCN1CCSCC1 | 34 to 36 °C
CC(C)(C)c1ccc(C2(C(=O)O)CCC2)cc1 | 179 to 181 °C
O=C(O)CC1(CC(=O)c2ccc(Cl)s2)CCCCC1 | 102 to 104 °C
COc1ccc(Cn2[nH]cc(Br)c2=N)cc1 | 92 to 94 °C
Cn1c(C(F)(F)F)nc2cc(C(=O)O)ccc21 | 254 to 256 °C
Cc1cc(C=O)c(C)n1-c1ccc2c(c1)CCC2 | 71 to 75 °C
COc1ccc(S(=O)(=O)Cl)cc1NC(C)=O | 145 to 147 °C
OCCn1nccc1C1CCNCC1 | 126 to 128 °C

Compound | melting point
Cc1c(Cl)cccc1OCC(=O)O | 143 to 145 °C
O=C(O)c1ccccc1OCc1ccc(F)cc1 | 80 to 84 °C
N#Cc1ccc(Cl)cc1NCc1ccccn1 | 100 to 102 °C
O=c1cc(CCl)nc2ccc(Br)cn12 | 172 to 174 °C
CC(C)CN(C(=O)CCl)C1CCS(=O)(=O)C1 (centres undefined) | 150 to 155 °C
Cc1nn(C)c(Br)c1C#N | 109 to 111 °C
CCC(=O)Nc1ccc(S(=O)(=O)Cl)cc1 | 109 to 111 °C
O=C1NC(=O)C2(CCCc3sccc32)N1 (centres undefined) | 267 to 269 °C
O=C(O)CCNS(=O)(=O)c1ccc2c(c1)CCCC2 | 106 to 110 °C
COc1ccc(-c2ccc(C#N)cc2)cc1 | 102 to 104 °C
CCOc1ccc(N)cc1S(=O)(=O)N(C)C | < 17 °C
COC(=O)CNc1ccccc1 | 45 to 47 °C
Nc1cccc(Sc2ccc(Cl)cc2)c1 | 58 to 60 °C
O=C(O)c1cc(/C=C/c2ccc(F)cc2)nc2ccc(Br)cc12 | 299 to 301 °C
CC(C)NC(=O)C(C)Cl (centres undefined) | 89 to 91 °C
O=C(O)CCC1NC(=O)N(c2ccc(Cl)cc2)C1=O (centres undefined) | 212 to 214 °C
CC(C)(C)c1cc(N)n(C2CCS(=O)(=O)C2)n1 (centres undefined) | 247 to 249 °C
CCCn1c(C)nnc1CO | 59 to 61 °C
CC(NC(=O)CCl)c1ccc2c(c1)CCCC2 (centres undefined) | 134 to 136 °C
CC1(c2cccc(C#N)c2)NC(=O)NC1=O (centres undefined) | 202 to 204 °C
O=C1CSC(=Cc2nc3ccccc3s2)N1 | 186 to 188 °C

Next, values leading:

melting point | Compound
99 to 101 °C | CCOC(=O)C1=C(C)NN=C(C)C1
192 to 193 °C | CC(=O)c1cnc2nncn2c1C
178 to 180 °C | O=C(O)c1cnn(-c2ncccc2Cl)c1C(F)F
359 to 361 °C | NC(=O)c1ccc2c(N)ncnc2c1
125 to 127 °C | NC(=O)Nc1cccc(N)c1
176 to 178 °C | Nc1ccc(N2CCSCC2)cc1C(=O)O
196 to 198 °C | O=C(O)c1cc(C2CC2)nc2ccc(F)cc12
83 to 85 °C | O=C(c1ccc(F)cc1)c1ccccn1
199 to 201 °C | Cc1ccc(-n2cnnn2)cc1NC(=O)OCC(F)(F)F
89 to 91 °C | Cc1nc(COc2ccccc2C(=O)O)no1
183 to 185 °C | O=C(O)CC1=NN(c2ccc(Cl)nn2)C(=O)C1
232 to 236 °C | O=C(O)c1c[nH]c(=O)[nH]1
82 to 84 °C | COC(=O)c1cc2ccccc2nc1Cl
285 to 287 °C | Nc1nc2c(cc1C(=O)O)CCCC2
173 to 175 °C | CCOC(=O)c1ccncc1N
80 to 82 °C | COC(=O)C(O)c1cc(Cl)cc(Cl)c1 (centres undefined)
113 to 115 °C | CN(C)c1ccnc(N)c1
219 to 221 °C | O=C(O)c1ccc(S)c(Cl)c1
174 to 176 °C | Nc1ccccc1C(=O)NC1CCCC1
120 to 127 °C | CCOC(=O)Cc1nn[nH]n1
73 to 75 °C | COc1cccc(NC(=O)CCl)c1
127 to 129 °C | CNC(=O)c1ccnc(F)c1
48 to 50 °C | CC(=O)c1cc([N+](=O)[O-])ccc1F
46 to 48 °C | CCOC(=O)C(=O)c1ncc(Cl)n1C
107 to 109 °C | COc1nc(C)ccc1C(=O)O
150 to 152 °C | NC(=O)Cn1cc(NC(=O)OCC(F)(F)F)cn1

melting point | Compound
119 to 121 °C | CC(C)(C)n1nc(C(=O)O)cc1C1CC1
116 to 118 °C | CCCc1ccccc1NC(N)=S
162 to 164 °C | O=C(O)c1cccnc1SC(F)(F)F
162 to 171 °C | NS(=O)(=O)c1cccc(NC(=O)CCl)c1
94 to 96 °C | CCOC(=O)c1c(CCCO)cnc2c(C#N)cnn12
103 to 105 °C | CC(NC(=O)OCC(F)(F)F)c1nncn1C (centres undefined)
125 to 127 °C | Nc1ccccc1C(=O)NCc1ccccc1
43 to 45 °C | COC(=O)c1cc(OC)ccn1
87 to 89 °C | CC(C)(C)Cc1cc(N)on1
152 to 154 °C | CC(=O)c1cnn(-c2ccc(C#N)cc2)c1C
179 to 181 °C | CCOC(=O)Cc1nc2ccccc2[nH]1
274 to 276 °C | Nc1nnc2ccc(Cl)nn12
145 to 147 °C | Cc1ccc(NC(=O)C2CCNCC2)nc1
149 to 151 °C | Cc1ccc(S(=O)(=O)Cl)cc1C(=O)O
169 to 171 °C | CCCc1cc(C(=O)O)[nH]n1
197 to 199 °C | O=C(O)c1cnc2sc(Cc3ccccc3)cn2c1=O
81 to 83 °C | CCCN(CCC)C(=O)c1ccc(N)cc1
184 to 186 °C | NC(=O)c1cn[nH]c1N
132 to 134 °C | CC(=O)c1cnc2ccsc2c1
108 to 110 °C | O=C(c1cccnc1)c1ccc2c(c1)CCO2
114 to 116 °C | NC(=O)COc1cccc(CCl)c1
128 to 130 °C | CC(=O)NCCNC(=O)c1ccccc1N
215 to 217 °C | CCOC(=O)c1cnn2c(O)cc(CCl)nc12
36 to 38 °C | CCCOC(=O)c1ccc(S(=O)(=O)Cl)cc1
101 to 103 °C | Nc1cc(S(=O)(=O)NC2CC2)ccc1F
